Tests used:
[1] = publicly available trans-resveratrol formulations; cited from earlier work
[2] = test system: LDL; test: LDL-Px blood marker, DHA and carotenoid-SFA formulations, trial for 4 weeks; assay type: in vivo, human
Text: (§1) Since DHA itself has antioxidant and anti-inflammatory properties it was important to assess whether its formulation with carotenoids and SFA would change them. Comparison of the effects of DHA and its new formulations on blood markers of oxidative and inflammatory damage is presented in Table 7.
It is worth pointing out that the real synergetic effect may be even more profound, because in both of those carotenoid-SFA formulations only half of the dose of the control DHA was used.

[3] = test system: liver lipid metabolism; test: Serum LDL cholesterol, DHA and carotenoid-SFA formulations, trial for 4 weeks; assay type: in vivo, human
[4] = test system: liver lipid metabolism; test: Serum triglycerides, DHA and carotenoid-SFA formulations, trial for 4 weeks; assay type: in vivo, human
[5] = test system: blood markers of oxidative and inflammatory damage; test: IOD blood marker, DHA and carotenoid-SFA formulations, trial for 4 weeks; assay type: in vivo, human
Text: as §1

[6] = Serum DHA pharmacokinetics after 4 weeks of supplementation with DHA formulations; conditions: human, in vivo
[7] = Serum EPA pharmacokinetics after 4 weeks of supplementation with DHA formulations; conditions: human, in vivo

Structure (SMILES) | LDL-Px ([2]; 0 w) | LDL-Px ([2]; 4 w) | LDL-Px, % of baseline ([2]; 4 w) | Δ LDL-Px vs 0 w ([2]; 4 w) | LDL cholesterol ([3]; 0 w) | LDL cholesterol ([3]; 4 w) | Δ LDL cholesterol vs 0 w ([3]; 4 w) | Triglycerides ([4]; 0 w) | Triglycerides ([4]; 4 w) | Triglycerides, % of baseline ([4]; 4 w) | Δ Triglycerides vs 0 w ([4]; 4 w) | IOD in MDA ([5]; 0 w) | IOD in MDA ([5]; 4 w) | IOD, % of baseline ([5]; 4 w) | Δ IOD vs 0 w ([5]; 4 w) | also measured
Oc1ccc(/C=C/c2cc(O)cc(O)c2)cc1 [trans-resveratrol] | – | – | – | – | – | – | – | – | – | – | – | – | – | – | – | Fraction bioavailable after oral consumption [1]: 5%
CC(C)=CCC/C(C)=C/C=C/C(C)=C/C=C/C(C)=C/C=C/C=C(C)/C=C/C=C(C)/C=C/C=C(\C)CCC=C(C)C [Lycopene 7 mg, Lycopene] | 133 ± 19 ELISA × 10^3 | 115 ± 14 ELISA × 10^3 | 86% | Δ = −18 ELISA × 10^3 | 158 ± 17 mg/dL | 154 ± 16 mg/dL | Δ = −4 mg/dL | 155 ± 12 mg/dL | 150 ± 13 mg/dL | 97% | Δ = −5 mg/dL | 111 ± 12 µM | 79 ± 9 µM | 71% | Δ = −32 μM | Effect on serum LDL level ([3]; 4 weeks): did not affect level of LDL; Change in triglyceride concentrations ([4]; end of the 4-week trial): no significant change
CC/C=C\C/C=C\C/C=C\C/C=C\C/C=C\C/C=C\CCC(=O)O [DHA 500 mg, docosahexaenoic acid] | 700 ± 76 ELISA × 10^3 | 265 ± 27 ELISA × 10^3 | 38% | Δ = −435 ELISA × 10^3 | 154 ± 16 mg/dL | 149 ± 15 mg/dL | Δ = −5 mg/dL | 197 ± 18 mg/dL | 184 ± 17 mg/dL | 93% | Δ = −13 mg/dL | 165 ± 18 µM | 107 ± 11 µM | 65% | Δ = −58 μM | concentration at 0 weeks [6]: 106 ± 11 µg/mL; concentration at 2 weeks [6]: 134 ± 12 µg/mL; concentration at 4 weeks [6]: 108 ± 12 µg/mL; Increase in serum DHA ([6]; 2 weeks): 26%; Δ serum DHA vs 0 w ([6]; 2 weeks): Δ = +28 μg/ml; Δ serum DHA vs 0 w ([6]; 4 weeks): Δ = +2 μg/ml; Reduction of serum triglycerides ([4]; 4 weeks): 13 mg/dL; Combined increase in serum EPA [7]: 11.6 µg/mL; Serum EPA ([7]; 0 weeks): 56.5 ± 6.2 µg/mL; Increase in serum EPA ([7]; 2 weeks): 21%; Serum EPA ([7]; 2 weeks): 68.1 ± 7.4 µg/mL; Δ serum EPA vs 0 w ([7]; 2 weeks): Δ = +11.6 μg/ml; Serum EPA ([7]; 4 weeks): 35.8 ± 5.3 µg/mL

Source: patent US11696920B2, “Intelligent delivery of ingested and absorbed molecules” (IMMD SP. ZO.O, priority 2016, dated 2023)
